The text below walks through data of US20230242663A1, “COMBINATION THERAPY COMPRISING ANTI-CD137 ANTIBODIES” (Adagene PTE. LTD., priority 2020, published 2023).

Data set [1] deals with HUT78 human TCL cells. Briefly: Dose-dependent effects on CD137L protein surface expression (flow cytometry). As to regulation of CD137L protein surface expression, HUT78 Protein: key: 'Y' indicates the treatment caused upregulation; 'N' indicates the treatment did not cause upregulation. The class given is cell-based. The note with it: for regulation of CD137L protein surface expression, HUT78 Protein: summary Table 3; for CD137L protein surface expression: HUT78 cells, dose range, 24 hours. As for the experimental part: HUT78 cells, cultured in 6-well plates in RPMI-1640 medium containing 20% fetal bovine serum (FBS), were treated with a dose range of Romidepsin (0-0.1 μM), Bortezomib (0-1.0 μM), Belinostat (0-1.0 μM), Chidamide (0-3.0 μM), or Vincristine (0-0.03 μM) for 24 hours. Cells (1×10^5) were washed twice in Dulbecco's Phosphate Buffered Saline (DPBS), stained with either Phycoerythrin (PE)-conjugated Isotype Control (Biolegend catalog #400112) and anti-human-CD137L (Biolegend catalog #311504) antibodies (1 μL antibody in 100 μL DPBS, FIG. 5A-5E) or PE-Cy7-conjugated Isotype Control (Thermofisher catalog #25-4714-80) and anti-human-CD137L (Thermofisher catalog #25-5906-42) antibodies (1 μL antibody in 100 μL DPBS, FIG. 5F-5H) at 4° C. for 30 minutes, washed twice in DPBS, and resuspended in 100 μL DPBS for flow cytometry analysis.

Data set [2] has as its system HUT78 human TCL cells. Nature of the data set: Time-dependent effects on CD137L protein surface expression (flow cytometry). In kind it is cell-based. The note with it: 0.003 μM Romidepsin or 0.01 μM Bortezomib, 2, 6, 16 or 24 hours. The procedure: HUT78 cells, cultured in 6-well plates in RPMI-1640 medium containing 20% FBS, were treated with 0.003 μM Romidepsin or 0.01 μM Bortezonib for 2, 6, 16, or 24 hours. Cells (1×103) were washed twice in DPBS, stained with PE-conjugated Isotype Control (Biolegend catalog #400112) and anti-human-CD137L (Biolegend catalog #311504) antibodies (1 μL antibody in 100 μL DPBS) at 4° C. for 30 minutes, washed twice in DPBS, and resuspended in 100 μL DPBS for flow cytometry analysis.

Data set [3] concerns HUT102 human TCL cells. Nature of the data set: mRNA expression, QuantiGene Plex assay, HUT102. As to regulation of CD137L mRNA expression, HUT102 mRNA: key: 'Y' indicates the treatment caused upregulation; 'N' indicates the treatment did not cause upregulation. In kind it is cell-based. The note with it: for regulation of CD137L mRNA expression, HUT102 mRNA: summary Table 3; for CD137L mRNA expression / CD274 mRNA expression / CD137 mRNA expression: HUT102 cells, dose range, 24 hours. As for the experimental part: (§1) HUT102, HUT78, and SU-DHL1 cells, cultured in 96-well plates, were treated with a dose range of Romidepsin (0-0.1 μM), Bortezomib (0-1.0 μM), Belinostat (0-10.0 μM), or Vincristine (0-0.03 μM) for 24 hours. Cells were lysed with Lysis Buffer and cell lysates were used for the QuantiGene Plex assay (7-gene multiplex (CD80, CD86, CD274, CD137, CD137L, HPRT1, GAPDH))

Data set [4] has as its system HUT78 human TCL cells. Briefly: mRNA expression, QuantiGene Plex assay, HUT78. As to regulation of CD137L mRNA expression, HUT78 mRNA: key: 'Y' indicates the treatment caused upregulation; 'N' indicates the treatment did not cause upregulation. To be noted: for regulation of CD137L mRNA expression, HUT78 mRNA: summary Table 3; for CD137L mRNA expression: HUT78 cells, dose range, 24 hours. In kind it is cell-based. As for the experimental part:
as §1

Data set [5] relates to SU-DHL1 human TCL cells. Nature of the data set: mRNA expression, QuantiGene Plex assay, SU-DHL1. As to regulation of CD137L mRNA expression, SU-DHL1 mRNA: key: 'Y' indicates the treatment caused upregulation; 'N' indicates the treatment did not cause upregulation. The class given is cell-based. To be noted: for regulation of CD137L mRNA expression, SU-DHL1 mRNA: summary Table 3. The procedure: as §1
In data set [6] the test system is HUT78 human TCL cells. Nature of the data set: Cell viability of HUT78 cells (CellTiter-Glo). In kind it is cell-based. To be noted: dose range, 24 hours. The procedure: HUT78 cells, cultured in 96-well plates in RPMI-1640 medium containing 20% fetal bovine serum (FBS), were treated with a dose range of Romidepsin (0-0.1 μM), Bortezomib (0-1.0 μM), or Chidamide (0-3.0 μM) for 24 hours. The CellTiter-Glo assay (Promega) was used to assess cell viability according to the manufacturer's instructions.

Data set [7] deals with purified human T cells. Briefly: Cell viability of purified human T cells (CellTiter-Glo). The class given is cell-based. The note with it: dose range, 24 hours. As for the experimental part: T cells were purified from human PBMCs (>95% purity, data not shown), cultured in 96-well plates in RPMI-1640 medium containing 10% fetal bovine serum (FBS), and treated with a dose range of Romidepsin (0-0.1 μM), Bortezomib (0-1.0 μM), or Chidamide (0-3.0 μM) for 24 hours. The CellTiter-Glo assay (Promega) was used to assess cell viability according to the manufacturer's instructions.

Data set [8] deals with A20 B cell lymphoma cells. In kind it is in vivo, BALB/c mice. The note with it: ADG106 5 mg/kg twice a week for 4 doses; Bendamustine 12.5 mg/kg once a day for 4 doses; intraperitoneal. The procedure:
BALB/c mice (n=8 per group, female, 6-8 weeks old) were transplanted subcutaneously with 5×10^5 A20 B cell lymphoma cells. After tumors were established (i.e., having reached a volume of 100 mm^3), mice were treated with vehicle, ADG106 (5 mg/kg, twice a week for 4 doses by intraperitoneal injection), Bendamustine (12.5 mg/kg, once a day for 4 doses by intraperitoneal injection), or ADG106 (5 mg/kg, twice a week for 4 doses by intraperitoneal injection) in combination with Bendamustine (12.5 mg/kg, once a day for 4 doses by intraperitoneal injection). Tumor growth was monitored twice weekly and reported as mean tumor volume±SEM over time.

The test system of data set [9] is human T lymphocytes. The note with it: Kim K. et al., Immunology 2002; cited from earlier work.
Setting [10] is: SU-DHL1 cells, dose range, 24 hours.

Turning to `CC(C)C[C@H](NC(=O)[C@H](Cc1ccccc1)NC(=O)c1cnccn1)B(O)O` [Bortezomib, bortezomib], in data set [1], the “regulation of CD137L protein surface expression, HUT78 Protein” value (“regulation … HUT78 Protein” for short) is on record as “Y” and the “CD137L protein surface expression” value is on record as “dose-dependent upregulation”. Also, in data set [2], the “CD137L protein surface expression over time” value is recorded as “time-dependent upregulation”. Moreover, in data set [3], the “regulation of CD137L mRNA expression, HUT102 mRNA” value (“regulation … HUT102 mRNA” for short) was “Y”; the “CD137L mRNA expression” value is given as “dose-dependent upregulation”; the “CD274 mRNA expression” value was “induced”. For the same compound, in data set [4], the “regulation of CD137L mRNA expression, HUT78 mRNA” value (“regulation … HUT78 mRNA” for short) is “N” and the “CD137L mRNA expression” value was “not”. Besides, the “regulation of CD137L mRNA expression, SU-DHL1 mRNA” value (“regulation … SU-DHL1 mRNA” below) in data set [5] is “Y”. In addition, the “CD137L mRNA expression” value in data set [5] (setting [10]) is on record as “dose-dependent upregulation”. For the same compound, in [6], the “cell viability of HUT78 human TCL cells” value is reported as “inhibited cell viability”. Further, in data set [7], the “viability of purified human T cells” value is reported as “minimal or no effect”.

Take `O=C(/C=C/c1cccc(S(=O)(=O)Nc2ccccc2)c1)NO` [Belinostat, belinostat]: in [1], the “regulation … HUT78 Protein” value is “Y” and the “CD137L protein surface expression” value is recorded as “dose-dependent upregulation”. Also, in data set [3], the “regulation … HUT102 mRNA” value was “Y”; the “CD137L mRNA expression” value is listed as “dose-dependent upregulation”; the “CD137 mRNA expression” value was “induced”; the “CD274 mRNA expression” value is “induced”. For the same compound, in [4], the “regulation … HUT78 mRNA” value is recorded as “Y” and the “CD137L mRNA expression” value was “dose-dependent upregulation”. Further, the “regulation … SU-DHL1 mRNA” value in data set [5] is on record as “Y”. In [5] (setting [10]), the “CD137L mRNA expression” value was “dose-dependent upregulation” and the “CD137 mRNA expression” value is on record as “induced”.

For “ADG106: anti-CD137 antibody; heavy chain SEQ ID NO: 10, light chain SEQ ID NO: 11; used as mouse IgG1 in Example 10”, the “tolerability in mice as monotherapies” value in data set [8] is “well tolerated”.

For `C/C=C1\NC(=O)[C@H]2CSSCC/C=C/[C@H](CC(=O)N[C@H](C(C)C)C(=O)N2)OC(=O)[C@H](C(C)C)NC1=O` [Romidepsin, romidepsin], the “regulation … HUT78 Protein” value in data set [1] is “Y”. Moreover, in data set [3], the “regulation … HUT102 mRNA” value was “Y”. Also, the “regulation … HUT78 mRNA” value in data set [4] is listed as “Y”. In addition, the “regulation … SU-DHL1 mRNA” value in data set [5] is “Y”.

As to `Nc1cc(F)ccc1NC(=O)c1ccc(CNC(=O)/C=C/c2cccnc2)cc1` [Chidamide, chidamide], the “regulation … HUT78 Protein” value in data set [1] is given as “Y”.

`CO[C@@]12[C@H](COC(N)=O)C3=C(C(=O)C(C)=C(N)C3=O)N1C[C@@H]1N[C@@H]12` [Mitomycin, mitomycin]: the “expression of CD137 in human T lymphocytes” value (“expression of CD137” for short) in data set [9] is reported as “induce expression of CD137”.

For the compound `Cn1c(CCCC(=O)O)nc2cc(N(CCCl)CCCl)ccc21` [Bendamustine, bendamustine], the “tolerability in mice as monotherapies” value in data set [8] is reported as “well tolerated”.

bleomycin: the “expression of CD137” value in [9] is on record as “induce expression of CD137”.

On to `CC[C@]1(O)C[C@H]2CN(CCc3c([nH]c4ccccc34)[C@@](C(=O)OC)(c3cc4c(cc3OC)N(C=O)[C@H]3[C@@](O)(C(=O)OC)[C@H](OC(C)=O)[C@]5(CC)C=CCN6CC[C@]43[C@@H]65)C2)C1` [Vincristine, vincristine], for which, in [1], the “regulation … HUT78 Protein” value is on record as “N” and the “CD137L protein surface expression” value is on record as “did not show upregulation”. In data set [3], the “regulation … HUT102 mRNA” value was “Y”; the “CD137L mRNA expression” value is given as “induced upregulation”; the “CD137 mRNA expression” value is “induced”. Further, in data set [4], the “regulation … HUT78 mRNA” value was “N” and the “CD137L mRNA expression” value was “not”. The “regulation … SU-DHL1 mRNA” value in [5] is on record as “N”. Further, in data set [5] (setting [10]), the “CD137L mRNA expression” value is on record as “not”.

As for `COc1cccc2c1C(=O)c1c(O)c3c(c(O)c1C2=O)C[C@@](O)(C(=O)CO)C[C@@H]3O[C@H]1C[C@H](N)[C@H](O)[C@H](C)O1` [doxorubicin], the “expression of CD137” value in [9] was “induce expression of CD137”.
